Reference: publication PMC10608985, “Retention Behavior of Anticancer Thiosemicarbazides in Biomimetic Chromatographic Systems and In Silico Calculations” (Molecules, 2023)

How the values were obtained:
[1] = HPLC lipophilicity on cholesterol (Chol) stationary phase; format: physicochemical; conditions: pH 7.4; for Log k Chol: Table S3; for log kw Chol: intercept, linear extrapolation to water; for log kw Chol / -S Chol: MeOH/20 mM acetate buffer; for -S Chol: slope of Soczewiński–Wachtmeister equation
Method: (§1) For the evaluation of the compounds the following stationary phases were used: C-18; biomimetic, IAM; cholesterol (Chol); immobilized proteins HSA and AGP. For the lipophilicity determination, MeOH (C-18, Chol) or ACN (IAM) were applied as the organic modifiers. The measurements were performed at pH 7.4 of the mobile phase. The regular changes in the retention of all solutes used as organic modifier content in the mobile phase on three studied stationary phases were found. It is expressed by the Soczewiński–Wachtmeister Equation (1):log k = log kw + S (% organic modifier)(1) where log kw—the intercept; S—the slope of regression curve. […] Log kw as well as S parameters are commonly applied as lipophilicity descriptors.
(§2) HPLC measurements were performed using a liquid chromatograph Knauer (Knauer, Berlin, Germany) with a dual pump, a 20 µL simple injection valve, and a UV–visible detector. The compounds were detected under UV light at 280 nm at room temperature. The retention time of an unretained solute (t0) was determined by the injection of a small amount of citric acid dissolved in water.
Cogent 4 UDC Cholesterol (150 × 2.1 mm, 4 µm) MicroSolv Technology Corporation (Leland, NC, USA) column was used. The mobile phase consisted of different volume mixtures of MeOH as the organic modifier and 20 mM acetate buffer as the aqueous phase, to obtain pH = 7.4. The concentrations of the organic modifier were in the range from 0.3 to 0.8 (v/v) with step 0.05 or 0.1 (Table S3 in the Supplementary Materials). The flow rate was 0.35 mL × min^−1.

[2] = target: T1, human serum albumin (HSA) (Homo sapiens, UniProt P02768); test: HPLC on immobilized HSA column, affinity and % plasma–protein binding; format: in vitro ADME; conditions: for log K HSA: binding equilibrium constant from calibration curve (Equation 8) of log k HSA; for log k HSA: retention on HSA column, 50 mM ammonium acetate pH 7.4 / propan-2-ol 85/15 (v/v); for fraction unbound: human, pH 7.4, % plasma–protein binding converted from log K HSA (Equation 10), read-out: %PPB HSA (converted)
T1 construct: purchased Chiralpac
Method: (§3) Measurements on HSA and AGP immobilized protein columns were carried out with […] isopropanol content in the aqueous mobile phase.
(§4) The standard calibration curve was used to predict log K values (K—binding equilibrium constant) of investigated compounds to HSA and AGP. Next, the log K values were converted into a percentage of plasma–protein binding (%PPB) of the compounds (Table 2). […] It is the lowest for compound 16 with -NO2 substituent, unsubstituted compound 1, and fluorine derivatives 2 and 9. In a group of […] derivatives in the same position of the phenyl ring, the %PPB to AGP increases with the increase in the atomic weight of the halogen atom and the lipophilicity of the molecule.
as §2
(§5) A human serum albumin (HSA) immobilized on the 5 µm silica gel column 100 × 3 mm (Chiralpac) and an α1-acid glycoprotein (AGP) immobilized on the 5 µm silica gel column 100 × 4 mm (Chiralpac) were used. The compounds were dissolved at 0.5 mg/mL concentration in 50% propan-2-ol and ammonium acetate solution (pH = 7.4) mixtures for HSA measurements. The mobile phase was composed of 50 mM ammonium acetate solution (pH = 7.4) and propan-2-ol at 85/15 (v/v) for AGP, respectively. The flow of mobile phases was 0.5 mL×min^−1. Log k values for the selected mobile phase were determined for all studied compounds and standard substances. The % protein plasma binding (% PPB) values were calculated from the calibration curve according to Valko et al..
(§6) Calibration of the protein columns: The column performance check and the calibration check were performed before measurements. The racemic mixture of warfarin was used for their performance evaluation. The following calibration set of drugs was applied: bromazepam, carbamazepine, diclofenac, nicardipine, nizatidine, piroxicam for HSA and bromazepam, chlorpromazine, imipramine, nicardipine, nizatidine, propranolol, and warfarin for AGP. The analytical standards were purchased from Sigma Aldrich Steinhen, Steinheim am Albuch, Germany). The drugs were dissolved at 0.5 mg/mL concentration in 50% propan-2-ol and ammonium acetate solution mixtures (pH = 7.4). The obtained log k values from HPLC were plotted against the log K values (K—binding equilibrium constant, log K—linearized PPB) based on the literature data for plasma–protein binding (%, PPB). The following relationships were obtained: log KHSA = 0.2513 (±0.0984) + 1.0525 (±0.1171) log k HSA(8) n=6, R=0.9761, R^2 = 0.9528, Radj2 = 0.9410, s = 0.1948 log KAGP = 0.1733 (±0.0574) + 0.8902 (±0.0787) log k AGP(9) n=7, R=0.9810, R^2 = 0.9623, Radj2 = 0.9548, s = 0.1113
(§7) Log K values were converted into %PPB using the following equation [15]:(10) %PPB=101×10^logK/1+10^logK

[3] = HPLC lipophilicity on IAM (immobilized artificial membrane, phosphatidylcholine) stationary phase; format: physicochemical; conditions: pH 7.4; for Log k IAM: Table S2; for log kw IAM: intercept, linear extrapolation to water; for log kw IAM / -S IAM: ACN/20 mM phosphate buffer; for -S IAM: slope of Soczewiński–Wachtmeister equation
Method: as §1, §2
A Rexchrom IAM.PC.DD2 (12 μm, 100 × 4.6 mm, 300 Å) (Regis Technologies, Morton Grove, IL, USA) column was used as the stationary phase. The compounds were dissolved at a concentration of 0.5 mg × mL^−1 in MeOH. The mobile phases consisted of different volume fractions of ACN and 20 mM phosphate buffer; the aqueous phase maintained a pH = 7.4 (0.02 M KH2PO4, Na2HPO4 and 0.15 M KCl). The acetonitrile concentration ranged from 0.05 to 0.4 (v/v), depending on the structure of compound, at 0.05 intervals (Table S2 in the Supplementary Materials). The flow rate was 1 mL × min^−1.

[4] = set-up: method as in Kozyra et al. [31]; conditions: MeOH/20 mM acetate buffer, pH 7.4, ref Kozyra et al. [31], cited from earlier work; for log kw C-18: intercept of Soczewiński–Wachtmeister equation (water as mobile phase); for -S C-18: slope of Soczewiński–Wachtmeister equation
[5] = system: α1-acid glycoprotein (AGP); test: HPLC on immobilized AGP column, affinity and % plasma–protein binding; format: in vitro ADME, human; conditions: for log K AGP: binding equilibrium constant from calibration curve (Equation 9) of log k AGP; for fraction unbound: human, pH 7.4, % plasma–protein binding converted from log K AGP (Equation 10), read-out: %PPB AGP (converted); for log k AGP: retention on AGP column, 50 mM ammonium acetate pH 7.4 / propan-2-ol 85/15 (v/v)
Method: as §3, §4, §2, §5, §6, §7

T1 sequence (P02768 25-609): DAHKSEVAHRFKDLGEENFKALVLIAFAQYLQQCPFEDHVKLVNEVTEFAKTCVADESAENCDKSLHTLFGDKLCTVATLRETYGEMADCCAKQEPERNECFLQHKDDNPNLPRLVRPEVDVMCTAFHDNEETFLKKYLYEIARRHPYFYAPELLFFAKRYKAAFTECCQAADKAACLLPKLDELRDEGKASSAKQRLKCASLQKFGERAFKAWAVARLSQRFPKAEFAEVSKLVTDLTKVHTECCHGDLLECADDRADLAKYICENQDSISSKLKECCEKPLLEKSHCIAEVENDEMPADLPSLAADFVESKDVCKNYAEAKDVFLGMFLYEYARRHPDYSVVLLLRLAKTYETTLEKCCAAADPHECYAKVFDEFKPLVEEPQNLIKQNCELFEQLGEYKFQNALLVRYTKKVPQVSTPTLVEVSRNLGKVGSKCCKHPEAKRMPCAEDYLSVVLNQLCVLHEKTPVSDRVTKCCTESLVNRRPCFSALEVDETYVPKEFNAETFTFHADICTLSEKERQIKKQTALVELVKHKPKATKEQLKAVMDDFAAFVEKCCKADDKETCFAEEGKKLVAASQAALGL

SMILES | Log k Chol ([1]; MeOH 0.45 v/v in mobile phase) | Log k Chol ([1]; MeOH 0.50 v/v in mobile phase) | Log k Chol ([1]; MeOH 0.60 v/v in mobile phase) | Log k Chol ([1]; MeOH 0.70 v/v in mobile phase) | Log k Chol ([1]; MeOH 0.80 v/v in mobile phase) | log kw Chol [1] | -S Chol [1] | log K HSA [2] | log k HSA [2] | Log k IAM ([3]; ACN 0.15 v/v in mobile phase) | Log k IAM ([3]; ACN 0.20 v/v in mobile phase) | Log k IAM ([3]; ACN 0.25 v/v in mobile phase) | Log k IAM ([3]; ACN 0.30 v/v in mobile phase) | Log k IAM ([3]; ACN 0.35 v/v in mobile phase) | -S IAM [3] | log kw C-18 [4] | -S C-18 [4] | log K AGP [5] | fraction unbound [5] | log k AGP [5] | also measured
O=C(COc1ccccc1)NNC(=S)Nc1ccc(I)cc1 [Compound 12] | 1.049 | 0.685 | 0.404 | -0.214 | -0.783 | 3.3300 | 5.0829 | 2.1778 | 1.8304 | 1.352 | 0.951 | 0.655 | 0.141 | -0.016 | 6.8364 | 2.9681 | 4.8352 | 0.8378 | 0.118 | 0.7465 | Log k Chol ([1]; MeOH 0.40 v/v in mobile phase): 1.303; Log k IAM ([3]; ACN 0.40 v/v in mobile phase): -0.358; log kw IAM [3]: 2.3341
O=C(COc1ccccc1)NNC(=S)Nc1ccc(Cl)cc1Cl [Compound 13] | 0.978 | 0.627 | 0.400 | -0.329 | -1.016 | 3.4517 | 5.4505 | 1.6879 | 1.3649 | 1.240 | 0.870 | 0.557 | 0.067 | -0.103 | 6.2034 | 3.2152 | 5.1803 | 0.5886 | 0.197 | 0.4665 | Log k Chol ([1]; MeOH 0.40 v/v in mobile phase): 1.246; fraction unbound [2]: 0.01; Log k IAM ([3]; ACN 0.40 v/v in mobile phase): -0.430
O=C(COc1ccccc1)NNC(=S)Nc1cc(Cl)ccc1Cl [Compound 14] | 1.095 | 0.716 | 0.574 | -0.138 | -0.783 | 3.4243 | 5.1337 | 2.2183 | 1.8689 | 1.494 | 1.133 | 0.710 | 0.154 | -0.027 | 7.6211 | 3.7050 | 5.6376 | 0.8829 | 0.107 | 0.7971 | Log k IAM ([3]; ACN 0.40 v/v in mobile phase): -0.366; log kw IAM [3]: 2.6121
O=C(COc1ccccc1)NNC(=S)Nc1ccc(Cl)c(Cl)c1 [Compound 15] | 1.349 | 1.013 | 0.792 | -0.087 | -0.876 | 4.2283 | 6.2128 | 1.8712 | 1.5391 | 1.542 | 1.032 | 0.667 | 0.158 | -0.062 | 7.5617 | 3.3757 | 5.3305 | 0.9150 | 0.099 | 0.8332 | fraction unbound [2]: 0.003; Log k IAM ([3]; ACN 0.40 v/v in mobile phase): -0.346; log kw IAM [3]: 2.5780
O=C(COc1ccccc1)NNC(=S)Nc1ccc([N+](=O)[O-])cc1 [Compound 16] | 0.478 | 0.093 | -0.189 | – | – | 2.8538 | 5.2122 | 1.7456 | 1.4198 | 0.590 | 0.253 | 0.016 | – | -0.533 | 6.0875 | 2.7200 | 5.1865 | 0.3508 | 0.302 | 0.1994 | Log k Chol ([1]; MeOH 0.30 v/v in mobile phase): 1.264; Log k Chol ([1]; MeOH 0.35 v/v in mobile phase): 1.082; Log k Chol ([1]; MeOH 0.40 v/v in mobile phase): 0.843; fraction unbound [2]: 0.008; Log k IAM ([3]; ACN 0.05 v/v in mobile phase): 1.287; Log k IAM ([3]; ACN 0.10 v/v in mobile phase): 0.964; log kw IAM [3]: 1.5455
CSc1ccc(NC(=S)NNC(=O)COc2ccccc2)cc1 [Compound 17] | 0.878 | 0.510 | 0.379 | -0.316 | -0.975 | 3.1664 | 5.0386 | 1.6830 | 1.3603 | 0.821 | 0.513 | 0.282 | -0.101 | -0.280 | 5.7908 | 2.6753 | 4.6859 | 0.6672 | 0.169 | 0.5548 | Log k Chol ([1]; MeOH 0.35 v/v in mobile phase): 1.434; Log k Chol ([1]; MeOH 0.40 v/v in mobile phase): 1.108; fraction unbound [2]: 0.011; Log k IAM ([3]; ACN 0.10 v/v in mobile phase): 1.147; log kw IAM [3]: 1.6998
